Laboratory results reported in patent publication US9605004B2, “Chemical compounds” (SYNGENTA LIMITED, priority 2013, dated 2017).

Key:
[1] = tested on: a variety of test species; test: Post-emergence herbicidal activity (Example 8b, Table 3); type: in vivo; settings: application post-emergence, rate 1000 g/ha, evaluated after 13 days, scale 0-5; for Herbicidal damage score, ABUTH: Abutilon theophrasti; for Herbicidal damage score, ALOMY: Alopecurus myosuroides; for Herbicidal damage score, AMARE: Amaranthus retroflexus; for Herbicidal damage score, ECHCG: Echinochloa crus-galli; for Herbicidal damage score, SETFA: Setaria faberi; for Herbicidal damage score, ZEAMX: Zea mays
Experimental: (§1) Seeds of a variety of test species were sown in standard soil in pots. After 8 days cultivation (post-emergence) under controlled conditions in a glasshouse (at 24/16° C., day/night; 14 hours light; 65% humidity), the plants were sprayed with an aqueous spray solution derived from the formulation of the technical active ingredient in acetone/water (50:50) solution containing 0.5% Tween 20 (polyoxyethelyene sorbitan monolaurate, CAS RN 9005-64-5). The test plants were then grown in a glasshouse under controlled conditions (at 24/16° C., day/night; 14 hours light; 65% humidity) and watered twice daily. After 13 days, the test was evaluated (5=total damage to plant; 0=no damage to plant).

[2] = tested on: a variety of test species; test: Pre-emergence herbicidal activity (Example 8a, Table 2); type: in vivo; set-up: key: 0 = no damage to plant, 5 = total damage to plant; settings: application pre-emergence, rate 1000 g/ha, evaluated after 13 days
Experimental: as §1, with “After” for “After 8 days”, “for one day (pre-emergence)” for “(post-emergence)”

SMILES | Herbicidal damage score, ABUTH [1] | Herbicidal damage score, ALOMY [1] | Herbicidal damage score, AMARE [1] | Herbicidal damage score, ECHCG [1] | Herbicidal damage score, SETFA [1] | Herbicidal damage score, ZEAMX [1] | Pre-emergence herbicidal activity, damage score ABUTH [2] | Pre-emergence herbicidal activity, damage score ALOMY [2] | Pre-emergence herbicidal activity, damage score ECHCG [2] | Pre-emergence herbicidal activity, damage score SETFA [2] | Pre-emergence herbicidal activity, damage score ZEAMX [2] | Pre-emergence herbicidal activity, damage score AMARE [2]
CC(C)=CCc1cc(N2C(=O)C(Cl)=C(C)C2O)nn1C (stereo not shown) [Compound B10, 4-chloro-2-hydroxy-3-methyl-1-[1-methyl-5-(3-methylbut-2-enyl)pyrazol-3-yl]-2H-pyrrol-5-one] | 3 | 0 | 0 | 2 | 5 | 2 | 0 | 0 | 0 | 0 | 0 | 
CC1=C(Cl)C(=O)N(c2cc(/C=C/C(C)(C)C)n(C)n2)C1O (stereo not shown) [Compound B11] | 5 | 3 | 5 | 5 | 5 | 1 | 2 | 2 | 4 | 3 | 2 | 4
CC1=C(Cl)C(=O)N(c2cc(C3=CCC(C)(C)CC3)n(C)n2)C1O (stereo not shown) [Compound B12] | 1 | 1 | 2 | 1 | 1 | 1 | 4 | 0 | 0 | 2 | 1 | 1
CC1=C(Cl)C(=O)N(c2cc(C(F)(F)C(F)(F)F)n(C)n2)C1O (stereo not shown) [Compound B13] | 5 | 5 | 5 | 5 | 5 | 3 | 5 | 4 | 5 | 5 | 2 | 5
CC1=C(Cl)C(=O)N(c2cc(C(C)C)n(C)n2)C1O (stereo not shown) [Compound B14] | 5 | 4 | 5 | 5 | 4 | 5 | 5 | 3 | 5 | 4 | 2 | 5
CC1=C(Cl)C(=O)N(c2ccn(C)n2)C1O (stereo not shown) [Compound B15] | 4 | 3 | 4 | 4 | 2 | 1 | 4 | 3 | 4 | 4 | 2 | 5
CC1=C(Cl)C(=O)N(c2cc(I)n(C)n2)C1O (stereo not shown) [Compound B16] |  |  |  |  |  | 4 | 4 | 4 | 4 |  | 3 | 
